These molecules were tested on T1R1/T1R3 umami receptor (assay: in silico modelling and in vitro screening for binding and activation of the umami receptor). Settings: feline umami receptor.
Format: cell-based, cat
Procedure: In vitro screening was carried out in order to establish which amino acids bind and activate the umami receptor.
In vitro screening was carried out in order to establish which nucleotides bind and activate the umami receptor.
In the case of `N[C@@H](CCC(=O)O)C(=O)O` [glutamate], the “binding to the feline umami receptor” value is reported as “does not bind”.

Same assay, conditions: non-human umami receptor; in silico modelling and in vitro assays
In the case of `C[C@H](N)C(=O)O` [alanine], the “ability to bind to and activate the umami receptor” value (“ability to bind” below) is reported as “able to bind to and activate the umami receptor to different extents”.
`NC(=O)C[C@H](N)C(=O)O` [asparagine] was tested, and the “ability to bind” value was “able to bind to and activate the umami receptor to different extents”.
For `N[C@@H](CS)C(=O)O` [cysteine], the “ability to bind” value was “able to bind to and activate the umami receptor to different extents”.
With `NCC(=O)O` [glycine] the “ability to bind” value was “able to bind to and activate the umami receptor to different extents”.
`N[C@@H](Cc1c[nH]cn1)C(=O)O` [histidine] was tested, and the “ability to bind” value was “able to bind to and activate the umami receptor to different extents”.
With `CC(C)C[C@H](N)C(=O)O` [leucine] the “ability to bind” value was “able to bind to and activate the umami receptor to different extents”.
`CSCC[C@H](N)C(=O)O` [methionine] was tested, and the “ability to bind” value was “able to bind to and activate the umami receptor to different extents”.
`N[C@@H](Cc1ccccc1)C(=O)O` [phenylalanine] was tested, and the “ability to bind” value was “able to bind to and activate the umami receptor to different extents”.
`N[C@@H](CO)C(=O)O` [serine] was tested, and the “ability to bind” value was “able to bind to and activate the umami receptor to different extents”.
In the case of `N[C@@H](Cc1c[nH]c2ccccc12)C(=O)O` [tryptophan], the “ability to bind” value is reported as “able to bind to and activate the umami receptor to different extents”.
For `N[C@@H](Cc1ccc(O)cc1)C(=O)O` [tyrosine], the “ability to bind” value was “able to bind to and activate the umami receptor to different extents”.
